According to patent publication US8729258B2, “Luminescent macrocyclic lanthanide complexes” (The Regents of the University of California, priority 2006, dated 2014):

Columns and labels:
[1] = biological target: streptavidin (Streptomyces avidinii, UniProt P22629); assay: Non-specific interaction with protein (streptavidin), consecutive G50 gel filtration spin columns; type: binding; conditions: second and third consecutive gel filtration spin columns after conjugation of activated ester to streptavidin
Experimental: It was therefore important to determine the tendency of the novel ligands to non-specifically interact with proteins. Sulfo-NHS ester and NHS ester derivatives of compound 5 were synthesized and conjugated to streptavidin. For comparison, the NHS ester of ligand 2 was also conjugated to streptavidin. Streptavidin was equilibrated in carbonate buffer, pH 9, at a concentration of approximately 130 μM. A DMF solution of the activated esters of each ligand was added to the protein at a final concentration of approximately 1 mM. The mixtures were allowed to incubate at 4° C. for 1 h. The metal is added either before or after conjugation of the ligand to the protein. Non-conjugated ligand was separated from conjugated protein using a G50 gel filtration centrifugal spin column technique (Penefsky, H. S, Methods Enzymol 1979, 56:527-30). This technique dilutes protein solutions to a lesser extent than conventional gel filtration techniques. Consecutive spin columns were run on a single protein sample solution to evaluate the extent of non-specific absorption of ligand. Following a single gel filtration separation, most of the excess ligand is removed and left at the top of the gel bed. A second spin column treatment should leave no further ligand at the top of the second column unless non-covalent association of the ligand with the protein occurs.

[2] = Kinetic stability of Tb complexes in various media at room temperature; conditions: 5 nM Tb-complex, various media incl. 1% acetic acid and 1 mM EDTA, 0.05% Tween-80, room temperature
Experimental: In order to investigate the stability of macrocyclic ligands further, the stabilities of different Tb-complexes were determined using a variety of different media, including 1% acetic acid and 1 mM EDTA. […] Each stock solution was then diluted 200× into different test solutions in polypropylene microcentrifuge tubes to a final concentration of 5 nM Tb-complex. Each test solution also contained 0.05% Tween-80. The test solutions were allowed to incubate at room temperature. Samples were taken at indicated time points, evaluated in triplicate and luminescence was recorded using standard time-resolved luminescence settings and 340 nm and 490 excitation and emission filters, respectively.

streptavidin, sequence (P22629 25-183): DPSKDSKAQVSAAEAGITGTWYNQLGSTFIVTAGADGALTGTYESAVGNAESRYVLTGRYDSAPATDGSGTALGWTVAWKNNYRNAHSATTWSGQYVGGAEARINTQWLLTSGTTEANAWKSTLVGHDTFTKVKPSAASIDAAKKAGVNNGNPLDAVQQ

SMILES	residual luminescence of ligand left at the top of the gel bed [1]	stability of terbium complex compared to non-restrained ligand (1) [2]
CNC(=O)c1cc(C(=O)NC)c(O)c(C(=O)NCCN(CCNC(=O)c2cc(C(=O)NC)cc(C(=O)NC)c2O)CCN(CCNC(=O)c2cc(C(=O)NC)cc(C(=O)NC)c2O)CCNC(=O)c2cc(C(=O)NCCC(=O)O)cc(C(=O)NC)c2O)c1 [compound 2, reference compound]	high degree of residual luminescence	
NCCN1CCNC(=O)c2cccc(c2O)C(=O)NCCN(CCNC(=O)c2cccc(C(N)=O)c2O)CCN2CCNC(=O)c3cccc(c3O)C(=O)NCCN(CCNC(=O)c3cccc(c3O)C(=O)NCC2)CC1 [compound 3]		significant increase in stability
O=C(O)CCCC(=O)NCCCCC1CN2CCNC(=O)c3cccc(c3O)C(=O)NCCN(CCNC(=O)c3cccc(c3O)C(=O)N1)CCN1CCNC(=O)c3cccc(c3O)C(=O)NCCN(CCNC(=O)c3cccc(c3O)C(=O)NCC1)CC2 (stereo not drawn) [compound 5a, GlutarLysBH(2,2)IAM]		significant increase in stability
